One data set deals with SNB-75. In words: in vitro CNS cancer cell growth inhibition (NCI screen).
The next data set concerns MOLT-4. In words: in vitro leukemia cell growth inhibition (NCI screen).
A further data set has as its system TK-10. In words: in vitro renal cancer cell growth inhibition (NCI screen).
The next data set concerns RXF-393. Described as above.
The test system of another data set is U 251. As to the kind of experiment: in vitro CNS cancer cell growth inhibition (NCI screen).
A further data set deals with LOX1MVI. As to the kind of experiment: in vitro melanoma cell growth inhibition (NCI screen).
The subject of the next data set is 786-0. In words: in vitro renal cancer cell growth inhibition (NCI screen).
The next data set concerns HT 29. In words: in vitro colon cancer cell growth inhibition (NCI screen).
The subject of the next data set is HL-60(TB). In words: in vitro leukemia cell growth inhibition (NCI screen).
In a further data set the test system is NCI-H522. In words: in vitro non-small cell lung cancer cell growth inhibition (NCI screen).
A further data set deals with SF-539. In words: in vitro CNS cancer cell growth inhibition (NCI screen).
Another data set relates to SF-268. The description is as above.
The test system of a further data set is UACC-62. In words: in vitro melanoma cell growth inhibition (NCI screen).
In a further data set the test system is MALME-3M. Described as above.
The next data set has as its system human tumor cell lines. It counts as cell-based. The settings on record: for GI50: Homo sapiens; for cytotoxicity against tumor cells (in words): cancer cell line panel.
Another data set has as its system K-562. As to the kind of experiment: in vitro leukemia cell growth inhibition (NCI screen).
Another data set relates to CCRF-CEM. The description is as above.
A further data set deals with OVCAR-3. In words: in vitro ovarian cancer cell growth inhibition (NCI screen).
Another data set relates to SK-MEL-5. In words: in vitro melanoma cell growth inhibition (NCI screen).
The test system of another data set is NCI-H460. As to the kind of experiment: in vitro non-small cell lung cancer cell growth inhibition (NCI screen).
The next data set deals with SR. In words: in vitro leukemia cell growth inhibition (NCI screen).
In a further data set the test system is NCI-H23. In words: in vitro non-small cell lung cancer cell growth inhibition (NCI screen).
The subject of the next data set is M19-MEL. As to the kind of experiment: in vitro melanoma cell growth inhibition (NCI screen).
A further data set relates to HCT-116. In words: in vitro colon cancer cell growth inhibition (NCI screen).
In a further data set the test system is LXFL 529. In words: in vitro non-small cell lung cancer cell growth inhibition (NCI screen).
A further data set deals with HCT-15. In words: in vitro colon cancer cell growth inhibition (NCI screen).
Another data set relates to KM 12. The description is as above.
For the next data set, the system named is DLD-1. The description is as above.
In another data set the test system is ACHN. In words: in vitro renal cancer cell growth inhibition (NCI screen).
In the next data set the test system is SK-MEL-28. In words: in vitro melanoma cell growth inhibition (NCI screen).
The next data set has as its system UACC-257. The description is as above.
The subject of another data set is SK-MEL-2. The description is as above.
For another data set, the system named is UO-31. In words: in vitro renal cancer cell growth inhibition (NCI screen).
For the next data set, the system named is COLO-205. As to the kind of experiment: in vitro colon cancer cell growth inhibition (NCI screen).
Another data set deals with XF-498. As to the kind of experiment: in vitro CNS cancer cell growth inhibition (NCI screen).
A further data set deals with NCI-H266. In words: in vitro non-small cell lung cancer cell growth inhibition (NCI screen).
A further data set deals with SK-OV-3. In words: in vitro ovarian cancer cell growth inhibition (NCI screen).
The test system of a further data set is M14. In words: in vitro melanoma cell growth inhibition (NCI screen).
The subject of another data set is OVCAR-8. In words: in vitro ovarian cancer cell growth inhibition (NCI screen).
The test system of the next data set is SW 620. As to the kind of experiment: in vitro colon cancer cell growth inhibition (NCI screen).
[1] abbreviates: non-small cell lung, CNS, melanoma, colon, leukemia, small cell lung, and renal cancer cell lines, read-out: logGI50 values (range over cell lines) (converted).

Where two headings read alike, the source gives them in different places.

Consider `CCC(c1ccccc1F)c1nc2c(n1CC)C(=O)c1ccccc1C2=O` (stereo not shown) [Compound 64], for which the “cytotoxicity log GI50” value with SNB-75 is listed as -4.60 M; in the data set on MOLT-4, -4.62 M; in the data set on TK-10 it was -5.49 M; with RXF-393 it was -5.53 M; in the data set on U 251, -5.07 M.

With `Cc1nc2c(n1Cc1ccc(F)cc1)C(=O)c1ccccc1C2=O` [Compound 19], the “cytotoxicity log GI50” value in the data set with LOX1MVI is -5.14 M; in the data set with 786-0, -4.88 M; in the data set with HT 29, -5.03 M; in the data set on HL-60(TB), -5.26 M; with NCI-H522, -4.97 M; in the data set on SF-539 it was -5.16 M. Moreover, the “cytotoxicity log GI50” value with SF-268 is recorded as -5.34 M; in the data set on UACC-62 it was -5.28 M; in the data set on MALME-3M, -5.05 M; in the data set on MOLT-4 it was -5.27 M; in the data set with K-562, -5.25 M; in the data set with CCRF-CEM, -4.98 M. Besides, the “cytotoxicity log GI50” value with OVCAR-3 is reported as -4.82 M; in the data set with RXF-393, -4.83 M; in the data set with SK-MEL-5 it was -4.99 M; in the data set with U 251, -5.18 M; in the data set with NCI-H460 it was -5.39 M; with SR, -5.37 M. Besides, the “cytotoxicity log GI50” value is listed as -4.88 M with NCI-H23; -5.44 M in the data set with M19-MEL; -5.16 M in the data set with HCT-116; -4.87 M in the data set with LXFL 529; -5.37 M in the data set on HCT-15. Further, the GI50 in the data set on human tumor cell lines (setting [1]) was 1 to 10 µM.

For the compound `COc1ccc(Cn2c(C)nc3c2C(=O)c2ccccc2C3=O)cc1` [Compound 18], the “cytotoxicity log GI50” value is listed as -5.60 M with LOX1MVI; -5.27 M with KM 12; -5.27 M in the data set with 786-0; -5.31 M in the data set on HT 29; -5.38 M with HL-60(TB); -5.22 M with NCI-H522. Moreover, the “cytotoxicity log GI50” value with SF-539 is recorded as -5.42 M; in the data set with SF-268 it was -5.35 M; in the data set on UACC-62, -5.34 M; with DLD-1 it was -5.33 M; in the data set on MOLT-4, -5.59 M; in the data set with K-562, -5.49 M. Moreover, the “cytotoxicity log GI50” value in the data set with CCRF-CEM was -5.39 M; in the data set on U 251, -5.20 M; in the data set with NCI-H460, -5.62 M; in the data set with SR, -5.84 M; with HCT-116, -5.43 M; in the data set with LXFL 529, -5.37 M. The “cytotoxicity log GI50” value with HCT-15 was -5.76 M. Besides, the GI50 in the data set with human tumor cell lines (setting [1]) is 1 to 10 µM.

`CC(=O)NC1=C(NCc2ccc(Cl)cc2)C(=O)c2ccccc2C1=O` [Compound 42]: the “cytotoxicity log GI50” value with HL-60(TB) is given as -5.86 M; in the data set on ACHN, -5.74 M; in the data set on SK-MEL-28, -5.26 M; in the data set with NCI-H522, -6.01 M; in the data set on UACC-257 it was -5.21 M; with SF-539 it was -5.36 M. Also, the “cytotoxicity log GI50” value with UACC-62 is -5.58 M; in the data set on SK-MEL-2, -5.25 M; with MOLT-4, -5.62 M; in the data set with K-562, -5.61 M; in the data set with RXF-393, -5.37 M; in the data set on SK-MEL-5 it was -5.26 M. Besides, the “cytotoxicity log GI50” value with UO-31 is -5.29 M; in the data set with COLO-205, -5.27 M; in the data set on XF-498, -5.84 M; in the data set on M19-MEL it was -5.28 M; in the data set on HCT-116, -5.51 M; in the data set with HCT-15 it was -5.25 M.

With `CCn1c(CCl)nc2c1C(=O)c1ccccc1C2=O` [Compound 22], the “cytotoxicity log GI50” value in the data set on NCI-H522 was -6.53 M; in the data set with NCI-H266, -6.65 M; in the data set on UACC-62 it was -5.89 M; with MALME-3M, -5.98 M; in the data set with MOLT-4, -6.45 M; in the data set on CCRF-CEM, -6.76 M. For the same compound, the “cytotoxicity log GI50” value with SK-MEL-5 is on record as -6.38 M; in the data set with SR, -6.40 M; with SK-OV-3 it was -6.29 M. For the same compound, in the data set with human tumor cell lines (cancer cells, printed as GI50, log scale values, read-out: GI50 values), the GI50 was 0.158 to 1 µM. In addition, the “cytotoxicity against tumor cells (in words)” value with human tumor cell lines is listed as “highly active against many of the cancer cell types tested”.

As for `CCn1c(-c2ccc(F)cc2)nc2c1C(=O)c1ccccc1C2=O` [Compound 26], the “cytotoxicity log GI50” value in the data set with M14 was -4.15 M; in the data set on MALME-3M it was -4.35 M; with OVCAR-3 it was -4.47 M; in the data set with RXF-393 it was -4.27 M; in the data set with SK-OV-3, -4.68 M. The GI50 in the data set with human tumor cell lines (cancer cell panel, general / most cell lines, read-out: logGI50 values in the cancer cell line panel (converted)) was around 10 µM.

`Cc1ccc(Cn2c(C)nc3c2C(=O)c2ccccc2C3=O)cc1` [Compound 17]: the “cytotoxicity log GI50” value with LOX1MVI is -6.22 M; in the data set on 786-0, -5.66 M; with HT 29, -5.90 M; in the data set on HL-60(TB) it was -5.72 M; in the data set with NCI-H522 it was -5.50 M; with OVCAR-8, -5.52 M. In addition, the “cytotoxicity log GI50” value in the data set on SF-539 was -5.88 M; in the data set with SF-268, -5.46 M; in the data set on UACC-62, -5.95 M; in the data set on DLD-1 it was -5.91 M; in the data set on MOLT-4, -6.19 M; in the data set on K-562, -6.08 M. Besides, the “cytotoxicity log GI50” value with CCRF-CEM is -5.70 M; in the data set on U 251 it was -5.73 M; in the data set with NCI-H460, -6.41 M; in the data set on SW 620, -5.48 M; in the data set with SR, -6.48 M; in the data set on HCT-116 it was -6.12 M. In addition, the “cytotoxicity log GI50” value in the data set on LXFL 529 is recorded as -5.76 M; with HCT-15, -6.21 M. In the data set on human tumor cell lines (setting [1]), the GI50 was 1 to 10 µM. Moreover, in the data set on human tumor cell lines, the “cytotoxicity against tumor cells (in words)” value is listed as “highly active against many of the cancer cell types tested”.
